Reference: ChEMBL document CHEMBL3611985, “Synthesis and structure-activity relationships of novel 9-oxime acylides with improved bactericidal activity” (2015)
In brackets after ≈: the same amount, converted by molar mass.

Legend:
Type in all cases: functional
Staphylococcus aureus [1] = assay: Bactericidal activity against methicillin-resistant Staphylococcus aureus PU32 expressing inducible ermA incubated for 20 hrs followed by sub-culturing for 24 hrs in absence of compound
Streptococcus pneumoniae [2] = assay: Bactericidal activity against erythromycin-susceptible Streptococcus pneumoniae ATCC 49619 incubated for 20 to 24 hrs followed by sub-culturing for 24 hrs in absence of compound
Staphylococcus aureus [3] = assay: Ratio of MBC to MIC against methicillin-resistant Staphylococcus aureus PU20 expressing constitutive ermC
Streptococcus pneumoniae [4] = assay: Antimicrobial activity against penicillin-susceptible Streptococcus pneumoniae PU09 incubated for 20 to 24 hrs by two-fold microbroth dilution method
Moraxella catarrhalis [5] = assay: Ratio of MBC to MIC against erythromycin-susceptible Moraxella catarrhalis 11B366
Haemophilus influenzae [6] = assay: Ratio of MBC to MIC against azithromycin-susceptible and ampicillin-resistant Haemophilus influenzae 11P037
Haemophilus influenzae [7] = assay: Antimicrobial activity against azithromycin-susceptible and ampicillin-resistant Haemophilus influenzae 11P037 incubated for 20 to 24 hrs by two-fold microbroth dilution method
Moraxella catarrhalis [8] = assay: Antimicrobial activity against erythromycin-susceptible Moraxella catarrhalis 11B366 incubated for 20 hrs by two-fold microbroth dilution method; settings: 11B366, 20 h
Moraxella catarrhalis [9] = assay: Bactericidal activity against erythromycin-susceptible Moraxella catarrhalis 11B366 incubated for 20 hrs followed by sub-culturing for 24 hrs in absence of compound
Haemophilus influenzae [10] = assay: Bactericidal activity against azithromycin-susceptible and ampicillin-resistant Haemophilus influenzae 11P037 incubated for 20 to 24 hrs followed by sub-culturing for 24 hrs in absence of compound
Streptococcus pyogenes [11] = assay: Bactericidal activity against Streptococcus pyogenes 12-207 expressing mef incubated for 20 to 24 hrs followed by sub-culturing for 24 hrs in absence of compound
Streptococcus pyogenes [12] = assay: Ratio of MBC to MIC against Streptococcus pyogenes 12-207 expressing mef
Staphylococcus aureus [13] = assay: Bactericidal activity against methicillin-resistant Staphylococcus aureus PU20 expressing constitutive ermC incubated for 20 hrs followed by sub-culturing for 24 hrs in absence of compound
Streptococcus pneumoniae [14] = assay: Ratio of MBC to MIC against penicillin-susceptible Streptococcus pneumoniae PU09
Streptococcus pyogenes [15] = assay: Antimicrobial activity against Streptococcus pyogenes 01-968 expressing inducible ermA incubated for 20 to 24 hrs by two-fold microbroth dilution method
Streptococcus pneumoniae [16] = assay: Bactericidal activity against penicillin-susceptible Streptococcus pneumoniae PU09 incubated for 20 to 24 hrs followed by sub-culturing for 24 hrs in absence of compound
Streptococcus pyogenes [17] = assay: Antimicrobial activity against Streptococcus pyogenes 12-207 expressing mef incubated for 20 to 24 hrs by two-fold microbroth dilution method
Staphylococcus aureus [18] = assay: Antimicrobial activity against methicillin-resistant Staphylococcus aureus PU20 expressing constitutive ermC incubated for 20 hrs by two-fold microbroth dilution method; settings: PU20, 20 h
Staphylococcus aureus [19] = assay: Antimicrobial activity against methicillin-resistant Staphylococcus aureus PU32 expressing inducible ermA incubated for 20 hrs by two-fold microbroth dilution method; settings: PU32, 20 h
Streptococcus pyogenes [20] = assay: Bactericidal activity against Streptococcus pyogenes 01-968 expressing inducible ermA incubated for 20 to 24 hrs followed by sub-culturing for 24 hrs in absence of compound
Staphylococcus aureus [21] = assay: Ratio of MBC to MIC against methicillin-resistant Staphylococcus aureus PU32 expressing inducible ermA
Streptococcus pneumoniae [22] = assay: Ratio of MBC to MIC against erythromycin-susceptible Streptococcus pneumoniae ATCC 49619
Streptococcus pneumoniae [23] = assay: Antimicrobial activity against erythromycin-susceptible Streptococcus pneumoniae ATCC 49619 incubated for 20 to 24 hrs by two-fold microbroth dilution method
Streptococcus pyogenes [24] = assay: Ratio of MBC to MIC against Streptococcus pyogenes 01-968 expressing inducible ermA

SMILES	MBC (Staphylococcus aureus [1])	MBC (Streptococcus pneumoniae [2])	Ratio (Staphylococcus aureus [3])	MIC (Streptococcus pneumoniae [4])	Ratio (Moraxella catarrhalis [5])	Ratio (Haemophilus influenzae [6])	MIC (Haemophilus influenzae [7])	MIC (Moraxella catarrhalis [8])	MBC (Moraxella catarrhalis [9])	MBC (Haemophilus influenzae [10])	MBC (Streptococcus pyogenes [11])	Ratio (Streptococcus pyogenes [12])	MBC (Staphylococcus aureus [13])	Ratio (Streptococcus pneumoniae [14])	MIC (Streptococcus pyogenes [15])	MBC (Streptococcus pneumoniae [16])	MIC (Streptococcus pyogenes [17])	MIC (Staphylococcus aureus [18])	MIC (Staphylococcus aureus [19])	MBC (Streptococcus pyogenes [20])	also measured
CC[C@H]1OC(=O)[C@H](C)[C@@H](OC(=O)Cc2ccccn2)[C@H](C)[C@@H](O[C@@H]2O[C@H](C)C[C@H](N(C)C)[C@H]2O)[C@](C)(OC)C[C@@H](C)/C(=N\OCC#Cc2cncc(C(N)=O)c2)[C@H](C)[C@H]2OC(=O)O[C@@]21C	> 4 µg/mL	0.016 µg/mL (≈ 0.0176 µM)	>2	0.5 µg/mL (≈ 0.551 µM)	2	8	8 µg/mL (≈ 8.81 µM)	1 µg/mL (≈ 1.1 µM)	2 µg/mL (≈ 2.2 µM)	64 µg/mL (≈ 70.5 µM)	> 0.125 µg/mL	>8	> 256 µg/mL	2	0.031 µg/mL (≈ 0.0341 µM)	1 µg/mL (≈ 1.1 µM)	0.016 µg/mL (≈ 0.0176 µM)	256 µg/mL (≈ 282 µM)	0.5 µg/mL (≈ 0.551 µM)	0.062 µg/mL (≈ 0.0683 µM)	Ratio (Staphylococcus aureus [21]): >8; Ratio (Streptococcus pneumoniae [22]): 1; MIC (Streptococcus pneumoniae [23]): 0.016 µg/mL (≈ 0.0176 µM); Ratio (Streptococcus pyogenes [24]): 2
CC[C@H]1OC(=O)[C@H](C)C(=O)[C@H](C)[C@@H](O[C@@H]2O[C@H](C)C[C@H](N(C)C)[C@H]2O)[C@](C)(OC)C[C@@H](C)/C(=N\OC/C=C/c2cnc3ccccc3c2)[C@H](C)[C@H]2OC(=O)O[C@@]21C	> 8 µg/mL	0.031 µg/mL (≈ 0.0389 µM)	1	0.25 µg/mL (≈ 0.314 µM)	1	>8	8 µg/mL (≈ 10.1 µM)	2 µg/mL (≈ 2.51 µM)	2 µg/mL (≈ 2.51 µM)	> 64 µg/mL	> 0.125 µg/mL	>8	32 µg/mL (≈ 40.2 µM)	2	0.062 µg/mL (≈ 0.0779 µM)	0.5 µg/mL (≈ 0.628 µM)	0.016 µg/mL (≈ 0.0201 µM)	32 µg/mL (≈ 40.2 µM)	1 µg/mL (≈ 1.26 µM)	> 0.5 µg/mL	Ratio (Staphylococcus aureus [21]): >8; Ratio (Streptococcus pneumoniae [22]): >=4; MIC (Streptococcus pneumoniae [23]): ≤ 0.008 µg/mL; Ratio (Streptococcus pyogenes [24]): >8
CC[C@H]1OC(=O)[C@H](C)[C@@H](OC(=O)Cc2ccccn2)[C@H](C)[C@@H](O[C@@H]2O[C@H](C)C[C@H](N(C)C)[C@H]2O)[C@](C)(OC)C[C@@H](C)/C(=N\OCC#Cc2cnc(N)nc2)[C@H](C)[C@H]2OC(=O)O[C@@]21C	8 µg/mL (≈ 9.08 µM)	0.031 µg/mL (≈ 0.0352 µM)	2	0.5 µg/mL (≈ 0.568 µM)	2	8	8 µg/mL (≈ 9.08 µM)	2 µg/mL (≈ 2.27 µM)	4 µg/mL (≈ 4.54 µM)	64 µg/mL (≈ 72.6 µM)	> 2 µg/mL	>8	256 µg/mL (≈ 291 µM)	2	0.25 µg/mL (≈ 0.284 µM)	1 µg/mL (≈ 1.14 µM)	0.25 µg/mL (≈ 0.284 µM)	128 µg/mL (≈ 145 µM)	1 µg/mL (≈ 1.14 µM)	0.5 µg/mL (≈ 0.568 µM)	Ratio (Staphylococcus aureus [21]): 8; Ratio (Streptococcus pneumoniae [22]): 2; MIC (Streptococcus pneumoniae [23]): 0.016 µg/mL (≈ 0.0182 µM); Ratio (Streptococcus pyogenes [24]): 2
CC[C@H]1OC(=O)[C@H](C)[C@@H](OC(=O)Cc2ccccn2)[C@H](C)[C@@H](O[C@@H]2O[C@H](C)C[C@H](N(C)C)[C@H]2O)[C@](C)(OC)C[C@@H](C)/C(=N\OCC#Cc2ccc3nccnc3c2)[C@H](C)[C@H]2OC(=O)O[C@@]21C	> 8 µg/mL	0.008 µg/mL (≈ 0.00873 µM)	1	0.5 µg/mL (≈ 0.546 µM)	1	>8	16 µg/mL (≈ 17.5 µM)	2 µg/mL (≈ 2.18 µM)	2 µg/mL (≈ 2.18 µM)	> 128 µg/mL	> 0.5 µg/mL	>8	128 µg/mL (≈ 140 µM)	2	0.031 µg/mL (≈ 0.0338 µM)	1 µg/mL (≈ 1.09 µM)	0.062 µg/mL (≈ 0.0677 µM)	128 µg/mL (≈ 140 µM)	1 µg/mL (≈ 1.09 µM)	0.25 µg/mL (≈ 0.273 µM)	Ratio (Staphylococcus aureus [21]): >8; Ratio (Streptococcus pneumoniae [22]): >=1; MIC (Streptococcus pneumoniae [23]): ≤ 0.008 µg/mL; Ratio (Streptococcus pyogenes [24]): 8
CC[C@H]1OC(=O)[C@H](C)[C@@H](OC(=O)Cc2ccccn2)[C@H](C)[C@@H](O[C@@H]2O[C@H](C)C[C@H](N(C)C)[C@H]2O)[C@](C)(OC)C[C@@H](C)/C(=N\OCC#Cc2cccnc2)[C@H](C)[C@H]2OC(=O)O[C@@]21C	> 8 µg/mL	0.008 µg/mL (≈ 0.00925 µM)	1	0.5 µg/mL (≈ 0.578 µM)	2	>8	8 µg/mL (≈ 9.25 µM)	2 µg/mL (≈ 2.31 µM)	4 µg/mL (≈ 4.62 µM)	> 64 µg/mL	> 1 µg/mL	>8	128 µg/mL (≈ 148 µM)	2	0.25 µg/mL (≈ 0.289 µM)	1 µg/mL (≈ 1.16 µM)	0.125 µg/mL (≈ 0.145 µM)	128 µg/mL (≈ 148 µM)	1 µg/mL (≈ 1.16 µM)	0.25 µg/mL (≈ 0.289 µM)	Ratio (Staphylococcus aureus [21]): >8; Ratio (Streptococcus pneumoniae [22]): >=1; MIC (Streptococcus pneumoniae [23]): ≤ 0.008 µg/mL; Ratio (Streptococcus pyogenes [24]): 1
CC[C@H]1OC(=O)[C@H](C)[C@@H](OC(=O)Cc2ccccn2)[C@H](C)[C@@H](O[C@@H]2O[C@H](C)C[C@H](N(C)C)[C@H]2O)[C@](C)(OC)C[C@@H](C)/C(=N\OCC#Cc2cncc(N)c2)[C@H](C)[C@H]2OC(=O)O[C@@]21C	> 4 µg/mL	0.008 µg/mL (≈ 0.00909 µM)	2	0.5 µg/mL (≈ 0.568 µM)	2	>8	8 µg/mL (≈ 9.09 µM)	1 µg/mL (≈ 1.14 µM)	2 µg/mL (≈ 2.27 µM)	> 64 µg/mL	> 1 µg/mL	>8	256 µg/mL (≈ 291 µM)	2	0.125 µg/mL (≈ 0.142 µM)	1 µg/mL (≈ 1.14 µM)	0.125 µg/mL (≈ 0.142 µM)	128 µg/mL (≈ 145 µM)	0.5 µg/mL (≈ 0.568 µM)	0.5 µg/mL (≈ 0.568 µM)	Ratio (Staphylococcus aureus [21]): >8; Ratio (Streptococcus pneumoniae [22]): >=1; MIC (Streptococcus pneumoniae [23]): ≤ 0.008 µg/mL; Ratio (Streptococcus pyogenes [24]): 4
